Measurements: the NIST ThermoML archive (doi:10.1016/j.jct.2015.08.014)

Experiment: xn = mol fraction of the nth substance listed
Conditions: 298.15 K, 100 kPa, Liquid, Alternating current cell with electrodes

CCCC[N+]1(C)CCCC1.N#CN=C=[N-] [1-butyl-1-methylpyrrolidinium dicyanamide] + O=C1CCCO1
Conditions | electrical conductivity [S/m]
Frequency=0.005 MHz, x1 = 0.3029 | 2.54
Frequency=0.005 MHz, x1 = 0.3845 | 2.36
Frequency=0.005 MHz, x1 = 0.4985 | 2.08
Frequency=0.005 MHz, x1 = 0.6954 | 1.68
Frequency=0.005 MHz, x1 = 0.9013 | 1.39
Frequency=0.005 MHz, x1 = 1 | 1.317
Frequency=0.005454 MHz, x1 = 0.0463 | 1.47
Frequency=0.005454 MHz, x1 = 0.0987 | 2.21
Frequency=0.005454 MHz, x1 = 0.1449 | 2.51
Frequency=0.005454 MHz, x1 = 0.1859 | 2.67
Frequency=0.005454 MHz, x1 = 0.2493 | 2.613
Frequency=0.005454 MHz, x1 = 0.3029 | 2.54
Frequency=0.005454 MHz, x1 = 0.3845 | 2.36
Frequency=0.005454 MHz, x1 = 0.4985 | 2.08
Frequency=0.005454 MHz, x1 = 0.6954 | 1.68
Frequency=0.005454 MHz, x1 = 0.9013 | 1.39
Frequency=0.005454 MHz, x1 = 1 | 1.317
Frequency=0.006 MHz, x1 = 0.0463 | 1.47
Frequency=0.006 MHz, x1 = 0.0987 | 2.21
Frequency=0.006 MHz, x1 = 0.1449 | 2.51
Frequency=0.006 MHz, x1 = 0.1859 | 2.67
Frequency=0.006 MHz, x1 = 0.2493 | 2.613
Frequency=0.006 MHz, x1 = 0.3029 | 2.54
Frequency=0.006 MHz, x1 = 0.3845 | 2.36
Frequency=0.006 MHz, x1 = 0.4985 | 2.08
Frequency=0.006 MHz, x1 = 0.6954 | 1.68
Frequency=0.006 MHz, x1 = 0.9013 | 1.39
Frequency=0.006 MHz, x1 = 1 | 1.317
Frequency=0.00652174 MHz, x1 = 0.0463 | 1.47
Frequency=0.00652174 MHz, x1 = 0.0987 | 2.22
Frequency=0.00652174 MHz, x1 = 0.1449 | 2.51
Frequency=0.00652174 MHz, x1 = 0.1859 | 2.67
Frequency=0.00652174 MHz, x1 = 0.2493 | 2.613
Frequency=0.00652174 MHz, x1 = 0.3029 | 2.54
Frequency=0.00652174 MHz, x1 = 0.3845 | 2.36
Frequency=0.00652174 MHz, x1 = 0.4985 | 2.08
Frequency=0.00652174 MHz, x1 = 0.6954 | 1.68
Frequency=0.00652174 MHz, x1 = 0.9013 | 1.39
Frequency=0.00652174 MHz, x1 = 1 | 1.317
Frequency=0.00694444 MHz, x1 = 0.0463 | 1.47
Frequency=0.00694444 MHz, x1 = 0.0987 | 2.22
Frequency=0.00694444 MHz, x1 = 0.1449 | 2.51
Frequency=0.00694444 MHz, x1 = 0.1859 | 2.67
Frequency=0.00694444 MHz, x1 = 0.2493 | 2.613
Frequency=0.00694444 MHz, x1 = 0.3029 | 2.54
Frequency=0.00694444 MHz, x1 = 0.3845 | 2.36
Frequency=0.00694444 MHz, x1 = 0.4985 | 2.08
Frequency=0.00694444 MHz, x1 = 0.6954 | 1.68
Frequency=0.00694444 MHz, x1 = 0.9013 | 1.39
Frequency=0.00694444 MHz, x1 = 1 | 1.317
Frequency=0.0075 MHz, x1 = 0.0463 | 1.47
Frequency=0.0075 MHz, x1 = 0.0987 | 2.22
Frequency=0.0075 MHz, x1 = 0.1449 | 2.51
Frequency=0.0075 MHz, x1 = 0.1859 | 2.67
Frequency=0.0075 MHz, x1 = 0.2493 | 2.613
Frequency=0.0075 MHz, x1 = 0.3029 | 2.54
Frequency=0.0075 MHz, x1 = 0.3845 | 2.36
Frequency=0.0075 MHz, x1 = 0.4985 | 2.08
Frequency=0.0075 MHz, x1 = 0.6954 | 1.68
Frequency=0.0075 MHz, x1 = 0.9013 | 1.39
Frequency=0.0075 MHz, x1 = 1 | 1.318
Frequency=0.008 MHz, x1 = 0.0463 | 1.47
Frequency=0.008 MHz, x1 = 0.0987 | 2.22
Frequency=0.008 MHz, x1 = 0.1449 | 2.51
Frequency=0.008 MHz, x1 = 0.1859 | 2.67
Frequency=0.008 MHz, x1 = 0.2493 | 2.613
Frequency=0.008 MHz, x1 = 0.3029 | 2.54
Frequency=0.008 MHz, x1 = 0.3845 | 2.36
Frequency=0.008 MHz, x1 = 0.4985 | 2.08
Frequency=0.008 MHz, x1 = 0.6954 | 1.68
Frequency=0.008 MHz, x1 = 0.9013 | 1.39
Frequency=0.008 MHz, x1 = 1 | 1.318
Frequency=0.00857143 MHz, x1 = 0.0463 | 1.48
Frequency=0.00857143 MHz, x1 = 0.0987 | 2.22
Frequency=0.00857143 MHz, x1 = 0.1449 | 2.51
Frequency=0.00857143 MHz, x1 = 0.1859 | 2.67
Frequency=0.00857143 MHz, x1 = 0.2493 | 2.613
Frequency=0.00857143 MHz, x1 = 0.3029 | 2.54
Frequency=0.00857143 MHz, x1 = 0.3845 | 2.36
Frequency=0.00857143 MHz, x1 = 0.4985 | 2.08
Frequency=0.00857143 MHz, x1 = 0.6954 | 1.68
Frequency=0.00857143 MHz, x1 = 0.9013 | 1.39
Frequency=0.00857143 MHz, x1 = 1 | 1.318
Frequency=0.00892857 MHz, x1 = 0.0463 | 1.48
Frequency=0.00892857 MHz, x1 = 0.0987 | 2.22
Frequency=0.00892857 MHz, x1 = 0.1449 | 2.51
Frequency=0.00892857 MHz, x1 = 0.1859 | 2.67
Frequency=0.00892857 MHz, x1 = 0.2493 | 2.614
Frequency=0.00892857 MHz, x1 = 0.3029 | 2.54
Frequency=0.00892857 MHz, x1 = 0.3845 | 2.36
Frequency=0.00892857 MHz, x1 = 0.4985 | 2.08
Frequency=0.00892857 MHz, x1 = 0.6954 | 1.68
Frequency=0.00892857 MHz, x1 = 0.9013 | 1.39
Frequency=0.00892857 MHz, x1 = 1 | 1.318
Frequency=0.00961538 MHz, x1 = 0.0463 | 1.48
Frequency=0.00961538 MHz, x1 = 0.0987 | 2.22
Frequency=0.00961538 MHz, x1 = 0.1449 | 2.51
Frequency=0.00961538 MHz, x1 = 0.1859 | 2.68
Frequency=0.00961538 MHz, x1 = 0.2493 | 2.614
Frequency=0.00961538 MHz, x1 = 0.3029 | 2.54
Frequency=0.00961538 MHz, x1 = 0.3845 | 2.36
Frequency=0.00961538 MHz, x1 = 0.4985 | 2.08
Frequency=0.00961538 MHz, x1 = 0.6954 | 1.68
Frequency=0.00961538 MHz, x1 = 0.9013 | 1.39
Frequency=0.00961538 MHz, x1 = 1 | 1.318
Frequency=0.01 MHz, x1 = 0.0463 | 1.48
Frequency=0.01 MHz, x1 = 0.0987 | 2.22
